System: EoL-1 (human eosinophilic leukaemia cell line) cells
Test: TNF-α-induced cytokine release, EoL-1 cells differentiated with PMA (Luminex)
Assay type: cell-based
Parameters: key to IL-1α (PMA), p of decrement / IL-1β (PMA), p of decrement / IL-1ra (PMA), p of decrement / IL-5 (PMA), p of decrement / IL-7 (PMA), p of decrement / IL-8 (PMA), p of decrement / IP-10 (PMA), p of decrement / MCP-1 (PMA), p of decrement / MIP-1β (PMA), p of decrement / RANTES (PMA), p of decrement / VEGF (PMA), p of decrement / Fractalkine (PMA), p of decrement / MIP-1α (PMA), p of decrement: ns = non significant
Experimental: EoL-1 (human eosinophilic leukaemia cell line) cells (Saito et al., 1985; Mayumi, 1992) were maintained in RPMI-1640 medium with L-glutamine supplemented with 10% (v/v) FBS at 37° C. in a humidified atmosphere with 5% CO2. Where indicated, 24 h before the experiment 25 ng/mL PMA ((phorbol 12-myristate 13-acetate, purchased from Sigma Aldrich) was added to the medium to induce eosinophil granulation and differentiation (Ohtsu et al., 1993; Zimmermann et al., 2000).
Half-million cells were aliquoted per point in a 24 well plate; each experiment was performed in triplicate and carried out in parallel with eosinophils differentiated and non differentiated with PMA (25 ng/mL, 24 h). Cells were suspended in low serum medium (RPMI-1640, 0.1% (v/v) FBS). TNF-α was used to induce cytokine secretion as previously described by Steube et al. (2000), and the net release was obtained by comparison to the basal (non-TNF-α treated). In the first experiment we evaluated the concentration and time relation between TNF-α stimulation and cytokine release. Therefore, 5, 10, and 25 ng/mL of TNF-α was administered to the cells at 0, ½, 1, 2, 3, 6, 12 and 24 h (data not shown). An aliquot of 150 μL of supernate was collected for cytokines' analysis. […] Differentiated and non-differentiated EoL-1 cells were exposed from 0.1 to 2.3 mM levocabastine ([…]Levocabastine 0.05% solution eye drops containing cyclodextrins, without benzalkonium chloride), and aliquots of the supernates were collected after 12 and 24 h. The content of cytokines at time zero was estimated by treating the cells with 400 nM calcimycin (A-23187), which is a cytolytic agent that frees all the mediators from the cytoplasmic compartment. In addition, for each experiment we tested the effect of the vehicle, which was added to the wells in a concentration equal to the maximum amount used for drug dilution.
Samples (supernates 12 and 24 h) in triplicate were analyzed using Luminex 200™ (Luminex, Austin, Tex.) and Beadview software v1.0 (Upstate Cell Signaling Solutions, Temecula, Calif.).
All data are presented as mean±SEM for the indicated number of experiments. Statistical significance was determined by Newman-Keuls test after ANOVA using GraphPad Prism (version 3.0; GraphPad Software Inc., San Diego, Calif., USA). P-values<0.05 were considered to be significant.

[1] = 12 h, TNF-α 5 ng + Levocabastine 2 mM vs TNF-α
[2] = 12 h, TNF-α 10 ng + Levocabastine 2 mM vs TNF-α
[3] = 12 h, TNF-α 20 ng + Levocabastine 2 mM vs TNF-α
[4] = 12 h, TNF-α 5, 10, 20 ng + Levocabastine 2 mM vs TNF-α
[5] = 24 h, FN + Levocabastine 2 mM vs FN
[6] = 24 h, Levocabastine 2 mM vs TNF-α

C[C@@H]1CN([C@H]2CC[C@](C#N)(c3ccc(F)cc3)CC2)CC[C@]1(C(=O)O)c1ccccc1 [Levocabastine, levocabastine]
release of IL-8 induced by TNF-α (2 mM, TNF-α 5, 10 and 20 ng, 24 h, differentiated with PMA (FIG. 9)): capable of reducing the release
release of IL-1-ra induced by TNF-α (0.1, 0.5 and 1.0 mM, 12 h, differentiated with PMA (FIG. 2)): capable to prevent the release
release of IL-1β induced by TNF-α (0.1, 0.5 and 1.0 mM, 12 h, differentiated with PMA (FIG. 3)): capable to prevent the release
Fractalkine (PMA), p of decrement [1]: ns
G-CSF (PMA), p of decrement [1]: ns
GM-CSF (PMA), p of decrement [1]: ns
IL-1β (PMA), p of decrement [1]: ns
IL-5 (PMA), p of decrement [1]: ns
IL-6 (PMA), p of decrement [1]: ns
IL-7 (PMA), p of decrement [1]: ns
IL-8 (PMA), p of decrement [1]: ns
IL-10 (PMA), p of decrement [1]: ns
IL-12p40 (PMA), p of decrement [1]: P < 0.001
IP-10 (PMA), p of decrement [1]: ns
MCP-1 (PMA), p of decrement [1]: ns
MIP-1α (PMA), p of decrement [1]: ns
TGF-α (PMA), p of decrement [1]: ns
VEGF (PMA), p of decrement [1]: P < 0.01
Fractalkine (PMA), p of decrement [2]: ns
G-CSF (PMA), p of decrement [2]: ns
GM-CSF (PMA), p of decrement [2]: ns
IL-1β (PMA), p of decrement [2]: ns
IL-5 (PMA), p of decrement [2]: ns
IL-6 (PMA), p of decrement [2]: ns
IL-7 (PMA), p of decrement [2]: ns
IL-8 (PMA), p of decrement [2]: ns
IL-10 (PMA), p of decrement [2]: ns
IL-12p40 (PMA), p of decrement [2]: P < 0.001
IP-10 (PMA), p of decrement [2]: ns
MCP-1 (PMA), p of decrement [2]: ns
MIP-1α (PMA), p of decrement [2]: ns
TGF-α (PMA), p of decrement [2]: ns
VEGF (PMA), p of decrement [2]: ns
Fractalkine (PMA), p of decrement [3]: ns
G-CSF (PMA), p of decrement [3]: ns
GM-CSF (PMA), p of decrement [3]: ns
IL-1β (PMA), p of decrement [3]: ns
IL-5 (PMA), p of decrement [3]: ns
IL-6 (PMA), p of decrement [3]: ns
IL-7 (PMA), p of decrement [3]: ns
IL-8 (PMA), p of decrement [3]: ns
IL-10 (PMA), p of decrement [3]: ns
IL-12p40 (PMA), p of decrement [3]: P < 0.001
IP-10 (PMA), p of decrement [3]: ns
MCP-1 (PMA), p of decrement [3]: ns
MIP-1α (PMA), p of decrement [3]: ns
TGF-α (PMA), p of decrement [3]: ns
VEGF (PMA), p of decrement [3]: ns
IL-1ra (PMA), p of decrement [4]: increase of cytokine secretion
IL-1α (PMA), p of decrement [4]: increase of cytokine secretion
MIP-1β (PMA), p of decrement [4]: increase of cytokine secretion
RANTES (PMA), p of decrement [4]: increase of cytokine secretion
Fractalkine (PMA), p of decrement (12 h, TNF-α vs Lev 0.1 mM): ns
IL-1ra (PMA), p of decrement (12 h, TNF-α vs Lev 0.1 mM): p < 0.01
IL-1α (PMA), p of decrement (12 h, TNF-α vs Lev 0.1 mM): ns
IL-1β (PMA), p of decrement (12 h, TNF-α vs Lev 0.1 mM): ns
IL-5 (PMA), p of decrement (12 h, TNF-α vs Lev 0.1 mM): ns
IL-7 (PMA), p of decrement (12 h, TNF-α vs Lev 0.1 mM): ns
IL-8 (PMA), p of decrement (12 h, TNF-α vs Lev 0.1 mM): ns
IP-10 (PMA), p of decrement (12 h, TNF-α vs Lev 0.1 mM): ns
MCP-1 (PMA), p of decrement (12 h, TNF-α vs Lev 0.1 mM): ns
MIP-1β (PMA), p of decrement (12 h, TNF-α vs Lev 0.1 mM): ns
RANTES (PMA), p of decrement (12 h, TNF-α vs Lev 0.1 mM): ns
VEGF (PMA), p of decrement (12 h, TNF-α vs Lev 0.1 mM): ns
Fractalkine (PMA), p of decrement (12 h, TNF-α vs Lev 0.5 mM): ns
IL-1ra (PMA), p of decrement (12 h, TNF-α vs Lev 0.5 mM): p < 0.001
IL-1α (PMA), p of decrement (12 h, TNF-α vs Lev 0.5 mM): ns
IL-1β (PMA), p of decrement (12 h, TNF-α vs Lev 0.5 mM): ns
IL-5 (PMA), p of decrement (12 h, TNF-α vs Lev 0.5 mM): ns
IL-7 (PMA), p of decrement (12 h, TNF-α vs Lev 0.5 mM): ns
IL-8 (PMA), p of decrement (12 h, TNF-α vs Lev 0.5 mM): ns
IP-10 (PMA), p of decrement (12 h, TNF-α vs Lev 0.5 mM): p < 0.01
MCP-1 (PMA), p of decrement (12 h, TNF-α vs Lev 0.5 mM): ns
MIP-1β (PMA), p of decrement (12 h, TNF-α vs Lev 0.5 mM): ns
RANTES (PMA), p of decrement (12 h, TNF-α vs Lev 0.5 mM): ns
VEGF (PMA), p of decrement (12 h, TNF-α vs Lev 0.5 mM): ns
Fractalkine (PMA), p of decrement (12 h, TNF-α vs Lev 1.0 mM): ns
IL-1ra (PMA), p of decrement (12 h, TNF-α vs Lev 1.0 mM): p < 0.001
IL-1α (PMA), p of decrement (12 h, TNF-α vs Lev 1.0 mM): ns
IL-1β (PMA), p of decrement (12 h, TNF-α vs Lev 1.0 mM): ns
IL-5 (PMA), p of decrement (12 h, TNF-α vs Lev 1.0 mM): ns
IL-7 (PMA), p of decrement (12 h, TNF-α vs Lev 1.0 mM): ns
IL-8 (PMA), p of decrement (12 h, TNF-α vs Lev 1.0 mM): ns
IP-10 (PMA), p of decrement (12 h, TNF-α vs Lev 1.0 mM): p < 0.05
MCP-1 (PMA), p of decrement (12 h, TNF-α vs Lev 1.0 mM): ns
MIP-1β (PMA), p of decrement (12 h, TNF-α vs Lev 1.0 mM): ns
RANTES (PMA), p of decrement (12 h, TNF-α vs Lev 1.0 mM): ns
VEGF (PMA), p of decrement (12 h, TNF-α vs Lev 1.0 mM): p < 0.05
Fractalkine (PMA), p of decrement (12 h, TNF-α vs Lev 2.3 mM): ns
IL-1ra (PMA), p of decrement (12 h, TNF-α vs Lev 2.3 mM): ns
IL-1α (PMA), p of decrement (12 h, TNF-α vs Lev 2.3 mM): ns
IL-1β (PMA), p of decrement (12 h, TNF-α vs Lev 2.3 mM): ns
IL-5 (PMA), p of decrement (12 h, TNF-α vs Lev 2.3 mM): ns
IL-7 (PMA), p of decrement (12 h, TNF-α vs Lev 2.3 mM): ns
IL-8 (PMA), p of decrement (12 h, TNF-α vs Lev 2.3 mM): ns
IP-10 (PMA), p of decrement (12 h, TNF-α vs Lev 2.3 mM): ns
MCP-1 (PMA), p of decrement (12 h, TNF-α vs Lev 2.3 mM): ns
MIP-1β (PMA), p of decrement (12 h, TNF-α vs Lev 2.3 mM): ns
RANTES (PMA), p of decrement (12 h, TNF-α vs Lev 2.3 mM): ns
VEGF (PMA), p of decrement (12 h, TNF-α vs Lev 2.3 mM): p < 0.01
MIP-1α (PMA), change of secretion (12 h, TNF-α vs Lev 0.1-2.3 mM): concentration dependent increase of
MIP-1α (PMA), p of increase (12 h, TNF-α vs Lev 0.1-2.3 mM): cytokine secretion p < 0.001
Fractalkine (PMA), p of decrement [5]: Increase
G-CSF (PMA), p of decrement [5]: Increase
GM-CSF (PMA), p of decrement [5]: ns
IL-1ra (PMA), p of decrement [5]: Increase
IL-1α (PMA), p of decrement [5]: Increase
IL-1β (PMA), p of decrement [5]: ns
IL-5 (PMA), p of decrement [5]: ns
IL-6 (PMA), p of decrement [5]: ns
IL-7 (PMA), p of decrement [5]: Increase
IL-8 (PMA), p of decrement [5]: Increase
IL-10 (PMA), p of decrement [5]: ns
IL-12p40 (PMA), p of decrement [5]: P < 0.01
IP-10 (PMA), p of decrement [5]: ns
MCP-1 (PMA), p of decrement [5]: Increase
MIP-1α (PMA), p of decrement [5]: Increase
MIP-1β (PMA), p of decrement [5]: Increase
RANTES (PMA), p of decrement [5]: Increase
TGF-α (PMA), p of decrement [5]: ns
VEGF (PMA), p of decrement [5]: P < 0.001
Fractalkine (PMA), p of decrement [6]: ns
G-CSF (PMA), p of decrement [6]: ns
GM-CSF (PMA), p of decrement [6]: ns
IL-1ra (PMA), p of decrement [6]: Increase
IL-1α (PMA), p of decrement [6]: Increase
IL-1β (PMA), p of decrement [6]: ns
IL-5 (PMA), p of decrement [6]: ns
IL-6 (PMA), p of decrement [6]: ns
IL-7 (PMA), p of decrement [6]: ns
IL-8 (PMA), p of decrement [6]: Increase
IL-10 (PMA), p of decrement [6]: ns
